Key:
human GLP-1R receptor = target: T1, human GLP-1R receptor (Homo sapiens, UniProt P43220); experiment: GLP-1R low expression cell assay (cAMP TR-FRET, CHO-K1_hGLP-1Rlow_clone10 cells); format: cell-based; details: for EC50: cAMP TR-FRET, 30 min at 25° C.; for Emax: maximum activation relative to control GLP-1 peptide agonist
T1 construct: expressed in transfected cells
Method in brief: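 Readout is cAMP TR-FRET after 30 min compound stimulation at 25 °C of a low-GLP-1R-expressing CHO-K1 clone (1,000 cells/well), with 10-point 3-fold serial dilutions. Percent activation versus a control GLP-1 peptide, from duplicates, was Hill-fitted to give EC50.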

[1] = Rat pharmacokinetics, oral dosing; format: in vivo, Sprague-Dawley rats; details: male, Sprague-Dawley, oral dosing at 3 mg/kg, plasma; for half-life: read-out: Rat T1/2
Method: Intravenous dosing: Compounds were formulated at 1.0 mg/mL in a solution comprising 5% polyethylene glycol 400 and 95% (12% (w/v) sulfobutyl-β-cyclodextrin in water) (v/v). Formulated compounds were sterile filtered through a 0.22 micron filter before dosing. Compounds were administered to male, 7-11-week-old Sprague-Dawley rats by jugular vein cannula infusion over 30 minutes at a dose of 1 mg/kg. Oral dosing: Compounds were formulated at 1.0 mg/mL in a solution comprising 5% polyethylene glycol 400 and 95% (12% (w/v) sulfobutyl-β-cyclodextrin in water) (v/v). Formulated compounds were administered to male, 7-11 week old Sprague-Dawley rats by oral gavage at a dose of 10 mg/kg or 3 mg/kg.
Sample collection: Blood collections of about 0.2 mL per time point were performed from jugular vein or other suitable site of each animal, into pre-chilled commercial EDTA-K2 tubes and placed on wet ice until centrifugation. Blood samples were processed for plasma by centrifugation at approximately 4° C., 3,200 g for 10 min. Plasma was collected and transferred into pre-labeled 96 well plate or polypropylene tubes, quick frozen over dry ice and kept at −60° C. or lower until
Data analysis: Plasma concentration versus time data was plotted in graph and analyzed by non-compartmental approaches using the Phoenix WinNonlin 6.3 software program. Related PK parameters were calculated according to dosing route, e.g., CL, Vdss and C0 for intravenous administration, Cmax, Tmax or % F for extravascular administration, and T1/2, AUC(0-t), AUC(0-inf), MRT(0-t), MRT(0-inf) for all routes.

T1 sequence (P43220 24-463): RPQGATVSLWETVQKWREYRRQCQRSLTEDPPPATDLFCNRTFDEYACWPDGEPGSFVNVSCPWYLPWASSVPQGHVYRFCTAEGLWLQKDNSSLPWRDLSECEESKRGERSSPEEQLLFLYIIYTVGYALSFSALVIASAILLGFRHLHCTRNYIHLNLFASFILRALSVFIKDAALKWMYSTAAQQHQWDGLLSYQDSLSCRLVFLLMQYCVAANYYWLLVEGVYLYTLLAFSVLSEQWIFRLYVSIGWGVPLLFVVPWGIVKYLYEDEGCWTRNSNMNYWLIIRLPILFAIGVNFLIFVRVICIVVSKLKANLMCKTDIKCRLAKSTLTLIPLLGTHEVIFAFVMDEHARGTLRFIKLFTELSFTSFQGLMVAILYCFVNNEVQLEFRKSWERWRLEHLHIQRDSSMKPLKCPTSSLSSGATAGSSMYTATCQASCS

## CC(F)(F)c1cc(C(=O)O)cc2c1nc(CN1CCC(c3cccc4c3O[C@](C)(c3ccc(Cl)cn3)O4)CC1)n2C[C@@H]1CCO1 [Compound 71, 2-((4-((R)-2-(5-Chloropyridin-2-yl)-2-methylbenzo[d][1,3]dioxol-4-yl)piperidin-1-yl)methyl)-4-(1,1-difluoroethyl)-1-(((S)-oxetan-2-yl)methyl)-1H-benzo[d]imidazole-6-carboxylic acid]
Human GLP-1R receptor
  EC50: 10 to 100 nM
  Emax: > 85%
[1]
  AUC: 500 to 2500 ng·h/mL
  Cmax: 500 to 1000 ng/mL
  half-life: < 90 min
  bioavailability: 25 to 50%

## C[C@]1(c2ccc(Cl)cn2)Oc2cccc(C3CCN(Cc4nc5c(OC(F)F)cc(C(=O)O)cc5n4C[C@@H]4CCO4)CC3)c2O1 [Compound 78, 2-((4-((S)-2-(5-Chloropyridin-2-yl)-2-methylbenzo[d][1,3]dioxol-4-yl)piperidin-1-yl)methyl)-4-(difluoromethoxy)-1-(((S)-oxetan-2-yl)methyl)-1H-benzo[d]imidazole-6-carboxylic acid]
Human GLP-1R receptor
  EC50: < 10 nM
  Emax: > 85%
[1]
  AUC: < 500 ng·h/mL
  Cmax: < 500 ng/mL
  half-life: 90 to 150 min
  bioavailability: 25 to 50%

## Cn1c(CN2CCC(c3cccc(OCc4ccc(Cl)cc4F)n3)CC2)nc2c(OCF)cc(C(=O)O)cc21 [Compound 225, 2-((4-(6-((4-Chloro-2-fluorobenzyl)oxy)pyridin-2-yl)piperidin-1-yl)methyl)-4-(fluoromethoxy)-1-methyl-1H-benzo[d]imidazole-6-carboxylic acid]
Human GLP-1R receptor
  EC50: < 10 nM
  Emax: > 85%
[1]
  Cmax: 2000 to 5000 ng/mL
  half-life: ≥ 150 min
  bioavailability: > 85%

## C[C@]1(c2ccc(Cl)cn2)Oc2cccc(C3CCN(Cc4nc5c(OCC6COC6)cc(C(=O)O)cc5n4C[C@@H]4CCO4)CC3)c2O1 [Compound 77, 2-((4-((S)-2-(5-chloropyridin-2-yl)-2-methylbenzo[d][1,3]dioxol-4-yl)piperidin-1-yl)methyl)-1-(((S)-oxetan-2-yl)methyl)-4-(oxetan-3-ylmethoxy)-1H-benzo[d]imidazole-6-carboxylic acid]
Human GLP-1R receptor
  EC50: < 10 nM
  Emax: > 85%
[1]
  AUC: < 500 ng·h/mL
  Cmax: < 500 ng/mL
  bioavailability: < 25%

## CC(C)Oc1cc(C(=O)O)cc2c1nc(CN1CCC(c3cccc(OCc4ccc(C#N)cc4F)n3)CC1)n2Cc1cncs1 [Compound 73, 2-((4-(6-((4-Cyano-2-fluorobenzyl)oxy)pyridin-2-yl)piperidin-1-yl)methyl)-4-isopropoxy-1-(thiazol-5-ylmethyl)-1H-benzo[d]imidazole-6-carboxylic acid]
Human GLP-1R receptor
  EC50: < 10 nM
  Emax: > 85%
[1]
  AUC: < 500 ng·h/mL
  Cmax: < 500 ng/mL
  half-life: < 90 min
  bioavailability: < 25%

## Cn1c(CN2CCC(c3cccc(OCc4ccc(C#N)cc4F)c3)CC2)nc2c(OC(F)F)cc(C(=O)O)cc21 [Compound 111, 2-((4-(3-((4-Cyano-2-fluorobenzyl)oxy)phenyl)piperidin-1-yl)methyl)-4-(difluoromethoxy)-1-methyl-1H-benzo[d]imidazole-6-carboxylic acid]
Human GLP-1R receptor
  EC50: 100 to 1000 nM
  Emax: > 85%
[1]
  Cmax: > 5000 ng/mL
  half-life: 90 to 150 min
  bioavailability: > 85%

## CCOc1cc(C(=O)O)cc2c1nc(CN1CCC(c3cccc(OCc4ccc(C#N)cc4F)n3)CC1)n2C [Compound 298, 2-((4-(6-((4-Cyano-2-fluorobenzyl)oxy)pyridin-2-yl)piperidin-1-yl)methyl)-4-ethoxy-1-methyl-1H-benzo[d]imidazole-6-carboxylic acid]
Human GLP-1R receptor
  EC50: < 10 nM
  Emax: > 85%
[1]
  AUC: 500 to 2500 ng·h/mL
  Cmax: 1000 to 2000 ng/mL
  half-life: ≥ 150 min
  bioavailability: 25 to 50%

## COc1cc(C(=O)O)c(F)c2c1nc(CN1CCC(c3cccc(OCc4ccc(C#N)cc4F)n3)CC1)n2C [Compound 303, 2-((4-(6-((4-Cyano-2-fluorobenzyl)oxy)pyridin-2-yl)piperidin-1-yl)methyl)-7-fluoro-4-methoxy-1-methyl-1H-benzo[d]imidazole-6-carboxylic acid]
Human GLP-1R receptor
  EC50: 10 to 100 nM
  Emax: > 85%
[1]
  AUC: 500 to 2500 ng·h/mL
  Cmax: 500 to 1000 ng/mL
  half-life: ≥ 150 min
  bioavailability: < 25%

## Cn1c(CN2CCC(c3cccc(OCc4ccc(C#N)cc4F)n3)CC2)nc2c(OC(F)F)cc(C(=O)O)cc21 [Compound 127, 2-((4-(6-((4-Cyano-2-fluorobenzyl)oxy)pyridin-2-yl)piperidin-1-yl)methyl)-4-(difluoromethoxy)-1-methyl-1H-benzo[d]imidazole-6-carboxylic acid]
Human GLP-1R receptor
  EC50: < 10 nM
  Emax: > 85%
[1]
  AUC: 2500 to 10000 ng·h/mL
  Cmax: 2000 to 5000 ng/mL
  half-life: < 90 min
  bioavailability: 50 to 85%

## Cn1c(CN2CCC(c3ccc(F)c(OCc4ccc(C#N)cc4F)n3)CC2)nc2c(OC(F)F)cc(C(=O)O)cc21 [Compound 137, 2-((4-(6-((4-Cyano-2-fluorobenzyl)oxy)-5-fluoropyridin-2-yl)piperidin-1-yl)methyl)-4-(difluoromethoxy)-1-methyl-1H-benzo[d]imidazole-6-carboxylic acid]
Human GLP-1R receptor
  EC50: 10 to 100 nM
  Emax: > 85%
[1]
  AUC: 2500 to 10000 ng·h/mL
  Cmax: > 5000 ng/mL
  half-life: 90 to 150 min
  bioavailability: > 85%

## Cn1c(CN2CCC(c3cccc(OCc4ccc(Cl)cc4F)n3)CC2)nc2c(OC(F)F)cc(C(=O)O)cc21 [Compound 136, 2-((4-(6-((4-Chloro-2-fluorobenzyl)oxy)pyridin-2-yl)piperidin-1-yl)methyl)-4-(difluoromethoxy)-1-methyl-1H-benzo[d]imidazole-6-carboxylic acid]
Human GLP-1R receptor
  EC50: < 10 nM
  Emax: > 85%
[1]
  Cmax: > 5000 ng/mL
  half-life: ≥ 150 min
  bioavailability: > 85%

## C[C@]1(c2ccc(Cl)cn2)Oc2cccc(C3CCN(Cc4nc5c(OCCF)cc(C(=O)O)cc5n4C[C@@H]4CCO4)CC3)c2O1 [Compound 81, 2-((4-((S)-2-(5-Chloropyridin-2-yl)-2-methylbenzo[d][1,3]dioxol-4-yl)piperidin-1-yl)methyl)-4-(2-fluoroethoxy)-1-(((S)-oxetan-2-yl)methyl)-1H-benzo[d]imidazole-6-carboxylic acid]
Human GLP-1R receptor
  EC50: < 10 nM
  Emax: > 85%
[1]
  AUC: < 500 ng·h/mL
  Cmax: < 500 ng/mL
  half-life: ≥ 150 min
  bioavailability: < 25%

## COc1cc(C(=O)O)cc2c1nc(CN1CCC(c3cccc(OCc4ccc(Cl)cc4F)n3)CC1)n2C [Compound 249, 2-((4-(6-((4-Chloro-2-fluorobenzyl)oxy)pyridin-2-yl)piperidin-1-yl)methyl)-4-methoxy-1-methyl-1H-benzo[d]imidazole-6-carboxylic acid]
Human GLP-1R receptor
  EC50: < 10 nM
  Emax: > 85%
[1]
  Cmax: > 5000 ng/mL
  half-life: 90 to 150 min
  bioavailability: > 85%

## COc1c(F)c(C(=O)O)cc2c1nc(CN1CCC(c3cccc(OCc4ccc(C#N)cc4F)n3)CC1)n2C [Compound 301, 2-((4-(6-((4-Cyano-2-fluorobenzyl)oxy)pyridin-2-yl)piperidin-1-yl)methyl)-5-fluoro-4-methoxy-1-methyl-1H-benzo[d]imidazole-6-carboxylic acid]
Human GLP-1R receptor
  EC50: 10 to 100 nM
  Emax: > 85%
[1]
  AUC: 500 to 2500 ng·h/mL
  Cmax: 500 to 1000 ng/mL
  half-life: 90 to 150 min
  bioavailability: 50 to 85%

## [2H]C([2H])(C)Oc1cc(C(=O)O)cc2c1nc(CN1CCC(c3cccc(OCc4ccc(C#N)cc4F)n3)CC1)n2C [Compound 295, 2-((4-(6-((4-Cyano-2-fluorobenzyl)oxy)pyridin-2-yl)piperidin-1-yl)methyl)-4-(ethoxy-1,1-d2)-1-methyl-1H-benzo[d]imidazole-6-carboxylic acid]
Human GLP-1R receptor
  EC50: < 10 nM
  Emax: > 85%
[1]
  AUC: 500 to 2500 ng·h/mL
  Cmax: 500 to 1000 ng/mL
  half-life: 90 to 150 min
  bioavailability: 25 to 50%

## Cn1c(CN2CCC(c3cccc4c3O[C@@H](c3ccc(C#N)cc3F)CO4)CC2)nc2c(OCCF)cc(C(=O)O)cc21 [Compound 294, (S)-2-((4-(3-(4-Cyano-2-fluorophenyl)-2,3-dihydrobenzo[b][1,4]dioxin-5-yl)piperidin-1-yl)methyl)-4-(2-fluoroethoxy)-1-methyl-1H-benzo[d]imidazole-6-carboxylic acid]
Human GLP-1R receptor
  EC50: > 1000 nM
  Emax: 50 to 85%
[1]
  AUC: < 500 ng·h/mL
  Cmax: < 500 ng/mL
  half-life: ≥ 150 min
  bioavailability: < 25%

## COc1cc(Cl)ccc1COc1cccc(C2CCN(Cc3nc4c(OC(F)F)cc(C(=O)O)cc4n3C)CC2)n1 [Compound 226, 2-((4-(6-((4-Chloro-2-methoxybenzyl)oxy)pyridin-2-yl)piperidin-1-yl)methyl)-4-(difluoromethoxy)-1-methyl-1H-benzo[d]imidazole-6-carboxylic acid]
Human GLP-1R receptor
  EC50: < 10 nM
  Emax: > 85%
[1]
  Cmax: > 5000 ng/mL
  half-life: ≥ 150 min
  bioavailability: > 85%
